Experiments:
[1] = test system: Epidermal growth factor receptor (Homo sapiens), P00533 [UNDEFINED MUTATION]; conditions: Compound concentration 1000.0 nM
[2] = molecular target: Vascular endothelial growth factor receptor 2 (Homo sapiens) (UniProt P35968); conditions: Compound concentration 1000.0 nM
[3] = molecular target: Platelet-derived growth factor receptor beta (Homo sapiens) (UniProt P09619); conditions: Compound concentration 1000.0 nM
[4] = molecular target: Aurora kinase B (Homo sapiens) (UniProt Q96GD4); conditions: Compound concentration 1000.0 nM
[5] = molecular target: MAP/microtubule affinity-regulating kinase 4 (Homo sapiens) (UniProt Q96L34); conditions: Compound concentration 1000.0 nM
[6] = molecular target: Epithelial discoidin domain-containing receptor 1 (Homo sapiens) (UniProt Q08345); conditions: Compound concentration 1000.0 nM
[7] = molecular target: 5-hydroxytryptamine receptor 1A (Homo sapiens) (UniProt P08908); conditions: Compound concentration 10.0 uM
[8] = molecular target: Serine/threonine-protein kinase 38 (Homo sapiens) (UniProt Q15208); conditions: Compound concentration 1000.0 nM
[9] = molecular target: Leukocyte tyrosine kinase receptor (Homo sapiens) (UniProt P29376); conditions: Compound concentration 1000.0 nM
[10] = molecular target: LIM domain kinase 2 (Homo sapiens) (UniProt P53671); conditions: Compound concentration 1000.0 nM
[11] = molecular target: Serine/threonine-protein kinase TNNI3K (Homo sapiens) (UniProt Q59H18); conditions: Compound concentration 1000.0 nM
[12] = molecular target: Casein kinase I isoform gamma-1 (Homo sapiens) (UniProt Q9HCP0); conditions: Compound concentration 1000.0 nM
[13] = molecular target: Tyrosine-protein kinase Lyn (Homo sapiens) (UniProt P07948); conditions: Compound concentration 1000.0 nM
[14] = test system: ALK tyrosine kinase receptor (Homo sapiens), Q9UM73 [L1196M]; conditions: Compound concentration 1000.0 nM
Rattus norvegicus = organism: Rattus norvegicus; conditions: Compound concentration 10.0 uM
[15] = molecular target: Serine/threonine-protein kinase pim-1 (Homo sapiens) (UniProt P11309); conditions: Compound concentration 1000.0 nM
[16] = molecular target: Tyrosine-protein kinase Fgr (Homo sapiens) (UniProt P09769); conditions: Compound concentration 1000.0 nM
[17] = molecular target: Serine/threonine-protein kinase/endoribonuclease IRE1 (Homo sapiens) (UniProt O75460); conditions: Compound concentration 1000.0 nM
[18] = molecular target: Alpha-1B adrenergic receptor (Homo sapiens) (UniProt P35368); conditions: Compound concentration 10.0 uM
[19] = molecular target: Vascular endothelial growth factor receptor 1 (Homo sapiens) (UniProt P17948); conditions: Compound concentration 1000.0 nM
[20] = molecular target: Death-associated protein kinase 2 (Homo sapiens) (UniProt Q9UIK4); conditions: Compound concentration 1000.0 nM
[21] = test system: Receptor-type tyrosine-protein kinase FLT3 (Homo sapiens), P36888 [UNDEFINED MUTATION]; conditions: Compound concentration 1000.0 nM
[22] = molecular target: Protein kinase C epsilon type (Homo sapiens) (UniProt Q02156); conditions: Compound concentration 1000.0 nM
[23] = molecular target: cGMP-dependent protein kinase 1 (Homo sapiens) (UniProt Q13976); conditions: Compound concentration 1000.0 nM
[24] = molecular target: Casein kinase I isoform alpha-like (Homo sapiens) (UniProt Q8N752); conditions: Compound concentration 1000.0 nM
[25] = molecular target: Serine/threonine-protein kinase B-raf (Homo sapiens) (UniProt P15056); conditions: Compound concentration 1000.0 nM
[26] = test system: Receptor-type tyrosine-protein kinase FLT3 (Homo sapiens), P36888 [K663Q]; conditions: Compound concentration 1000.0 nM
[27] = molecular target: Mitogen-activated protein kinase kinase kinase 2 (Homo sapiens) (UniProt Q9Y2U5); conditions: Compound concentration 1000.0 nM
[28] = test system: Tyrosine-protein kinase ABL1 (Homo sapiens), P00519 [M351T]; conditions: Compound concentration 1000.0 nM
[29] = test system: Proto-oncogene tyrosine-protein kinase receptor Ret (Homo sapiens), P07949 [V804L]; conditions: Compound concentration 1000.0 nM
[30] = molecular target: Fibroblast growth factor receptor 4 (Homo sapiens) (UniProt P22455); conditions: Compound concentration 1000.0 nM
[31] = molecular target: Focal adhesion kinase 1 (Homo sapiens) (UniProt Q05397); conditions: Compound concentration 1000.0 nM
[32] = molecular target: Serine/threonine-protein kinase Sgk2 (Homo sapiens) (UniProt Q9HBY8); conditions: Compound concentration 1000.0 nM
[33] = molecular target: Dual specificity protein kinase CLK3 (Homo sapiens) (UniProt P49761); conditions: Compound concentration 1000.0 nM
[34] = molecular target: Misshapen-like kinase 1 (Homo sapiens) (UniProt Q8N4C8); conditions: Compound concentration 1000.0 nM
[35] = test system: Tyrosine-protein kinase ABL1 (Homo sapiens), P00519 [Q252H]; conditions: Compound concentration 1000.0 nM
[36] = molecular target: Dual specificity tyrosine-phosphorylation-regulated kinase 2 (Homo sapiens) (UniProt Q92630); conditions: Compound concentration 1000.0 nM
[37] = molecular target: Serine/threonine-protein kinase LATS1 (Homo sapiens) (UniProt O95835); conditions: Compound concentration 1000.0 nM
[38] = molecular target: Non-receptor tyrosine-protein kinase TYK2 (Homo sapiens) (UniProt P29597); conditions: Compound concentration 1000.0 nM
[39] = molecular target: ALK tyrosine kinase receptor (Homo sapiens) (UniProt Q9UM73); conditions: Compound concentration 1000.0 nM
[40] = molecular target: Cyclin-dependent kinase 15 (Homo sapiens) (UniProt Q96Q40); conditions: Compound concentration 1000.0 nM
[41] = molecular target: Tyrosine-protein kinase ZAP-70 (Homo sapiens) (UniProt P43403); conditions: Compound concentration 1000.0 nM
[42] = molecular target: GABA-A receptor; anion channel (Rattus norvegicus) (UniProt O09028+P15431+P18506+P18508+P19969+P20236+P23574+P23576+P28471+P28473+P30191+P62813+P63079+P63138+Q91ZM7+Q9ES14); conditions: Compound concentration 10.0 uM
[43] = molecular target: Serine/threonine-protein kinase PAK 2 (Homo sapiens) (UniProt Q13177); conditions: Compound concentration 1000.0 nM

Chain of Dual specificity protein kinase CLK3 (Homo sapiens) (P49761 whole entry, looked up): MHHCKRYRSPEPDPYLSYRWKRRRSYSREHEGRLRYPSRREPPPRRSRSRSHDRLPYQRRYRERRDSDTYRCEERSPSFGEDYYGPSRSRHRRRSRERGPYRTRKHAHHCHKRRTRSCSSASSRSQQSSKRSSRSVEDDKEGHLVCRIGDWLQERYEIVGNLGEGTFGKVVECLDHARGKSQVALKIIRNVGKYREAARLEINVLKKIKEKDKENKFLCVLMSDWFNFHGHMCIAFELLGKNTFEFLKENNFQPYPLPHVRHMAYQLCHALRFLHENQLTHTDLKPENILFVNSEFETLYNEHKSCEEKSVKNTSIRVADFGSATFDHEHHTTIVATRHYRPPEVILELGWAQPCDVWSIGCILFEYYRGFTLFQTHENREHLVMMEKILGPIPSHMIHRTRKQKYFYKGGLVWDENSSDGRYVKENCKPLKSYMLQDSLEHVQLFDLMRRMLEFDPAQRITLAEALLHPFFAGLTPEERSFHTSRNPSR
Chain of Serine/threonine-protein kinase LATS1 (Homo sapiens) (O95835 whole entry): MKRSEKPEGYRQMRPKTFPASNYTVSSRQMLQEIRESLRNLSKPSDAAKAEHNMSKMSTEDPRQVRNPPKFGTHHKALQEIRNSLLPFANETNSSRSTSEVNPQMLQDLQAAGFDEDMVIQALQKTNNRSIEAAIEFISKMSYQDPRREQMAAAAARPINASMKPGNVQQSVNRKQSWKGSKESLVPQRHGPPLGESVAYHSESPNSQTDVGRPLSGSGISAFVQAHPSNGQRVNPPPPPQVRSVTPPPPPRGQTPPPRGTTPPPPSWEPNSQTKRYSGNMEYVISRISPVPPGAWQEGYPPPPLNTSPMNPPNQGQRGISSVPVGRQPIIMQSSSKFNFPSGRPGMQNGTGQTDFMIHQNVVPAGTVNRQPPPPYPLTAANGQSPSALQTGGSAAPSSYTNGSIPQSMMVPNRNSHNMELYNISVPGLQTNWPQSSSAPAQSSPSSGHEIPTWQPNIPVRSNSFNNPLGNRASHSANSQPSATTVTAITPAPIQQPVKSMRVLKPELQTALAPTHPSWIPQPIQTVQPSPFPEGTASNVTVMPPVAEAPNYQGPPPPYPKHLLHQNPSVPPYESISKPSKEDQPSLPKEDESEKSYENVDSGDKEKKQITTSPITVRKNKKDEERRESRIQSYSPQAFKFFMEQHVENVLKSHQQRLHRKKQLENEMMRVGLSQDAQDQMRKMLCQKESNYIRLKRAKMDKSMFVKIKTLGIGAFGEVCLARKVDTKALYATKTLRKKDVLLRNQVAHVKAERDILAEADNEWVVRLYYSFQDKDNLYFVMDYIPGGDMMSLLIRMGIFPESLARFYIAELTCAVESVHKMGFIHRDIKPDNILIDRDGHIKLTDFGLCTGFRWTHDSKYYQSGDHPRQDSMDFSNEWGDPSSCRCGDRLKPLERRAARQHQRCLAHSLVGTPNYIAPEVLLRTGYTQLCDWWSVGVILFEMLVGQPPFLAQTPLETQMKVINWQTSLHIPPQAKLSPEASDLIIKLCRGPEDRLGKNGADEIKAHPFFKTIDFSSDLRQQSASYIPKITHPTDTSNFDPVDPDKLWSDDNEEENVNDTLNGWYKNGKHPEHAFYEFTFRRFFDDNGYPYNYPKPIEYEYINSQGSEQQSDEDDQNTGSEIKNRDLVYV
Chain of Tyrosine-protein kinase Lyn (Homo sapiens) (P07948 2-512 limits assumed): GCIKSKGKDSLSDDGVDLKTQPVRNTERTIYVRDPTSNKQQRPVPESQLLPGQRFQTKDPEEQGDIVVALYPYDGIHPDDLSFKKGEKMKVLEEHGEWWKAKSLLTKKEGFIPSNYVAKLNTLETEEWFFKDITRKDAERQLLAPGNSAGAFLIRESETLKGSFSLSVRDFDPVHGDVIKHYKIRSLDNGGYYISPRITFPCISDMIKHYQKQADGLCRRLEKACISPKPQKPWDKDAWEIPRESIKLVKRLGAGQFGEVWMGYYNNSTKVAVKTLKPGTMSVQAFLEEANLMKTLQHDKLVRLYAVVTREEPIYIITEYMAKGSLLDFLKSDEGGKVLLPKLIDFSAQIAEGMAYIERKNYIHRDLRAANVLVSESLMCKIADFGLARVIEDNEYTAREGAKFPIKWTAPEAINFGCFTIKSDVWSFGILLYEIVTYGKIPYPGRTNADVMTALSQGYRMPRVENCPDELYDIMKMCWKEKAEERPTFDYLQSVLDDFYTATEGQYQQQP
Chain of Alpha-1B adrenergic receptor (Homo sapiens) (P35368 whole entry): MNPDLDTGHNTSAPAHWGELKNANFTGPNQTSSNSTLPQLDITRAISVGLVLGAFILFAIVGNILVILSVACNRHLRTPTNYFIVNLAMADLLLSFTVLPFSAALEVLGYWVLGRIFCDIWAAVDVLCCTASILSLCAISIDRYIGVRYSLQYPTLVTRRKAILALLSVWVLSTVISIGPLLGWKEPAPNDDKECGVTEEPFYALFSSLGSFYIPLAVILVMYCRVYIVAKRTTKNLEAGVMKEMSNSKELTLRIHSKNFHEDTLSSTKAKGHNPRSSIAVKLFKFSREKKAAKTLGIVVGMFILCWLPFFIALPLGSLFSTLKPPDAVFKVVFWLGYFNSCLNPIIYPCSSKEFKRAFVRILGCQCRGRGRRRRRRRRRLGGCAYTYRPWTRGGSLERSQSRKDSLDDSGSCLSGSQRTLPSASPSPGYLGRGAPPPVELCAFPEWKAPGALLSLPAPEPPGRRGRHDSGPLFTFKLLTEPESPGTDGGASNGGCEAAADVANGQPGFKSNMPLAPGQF
Chain of Vascular endothelial growth factor receptor 1 (Homo sapiens) (P17948 whole entry): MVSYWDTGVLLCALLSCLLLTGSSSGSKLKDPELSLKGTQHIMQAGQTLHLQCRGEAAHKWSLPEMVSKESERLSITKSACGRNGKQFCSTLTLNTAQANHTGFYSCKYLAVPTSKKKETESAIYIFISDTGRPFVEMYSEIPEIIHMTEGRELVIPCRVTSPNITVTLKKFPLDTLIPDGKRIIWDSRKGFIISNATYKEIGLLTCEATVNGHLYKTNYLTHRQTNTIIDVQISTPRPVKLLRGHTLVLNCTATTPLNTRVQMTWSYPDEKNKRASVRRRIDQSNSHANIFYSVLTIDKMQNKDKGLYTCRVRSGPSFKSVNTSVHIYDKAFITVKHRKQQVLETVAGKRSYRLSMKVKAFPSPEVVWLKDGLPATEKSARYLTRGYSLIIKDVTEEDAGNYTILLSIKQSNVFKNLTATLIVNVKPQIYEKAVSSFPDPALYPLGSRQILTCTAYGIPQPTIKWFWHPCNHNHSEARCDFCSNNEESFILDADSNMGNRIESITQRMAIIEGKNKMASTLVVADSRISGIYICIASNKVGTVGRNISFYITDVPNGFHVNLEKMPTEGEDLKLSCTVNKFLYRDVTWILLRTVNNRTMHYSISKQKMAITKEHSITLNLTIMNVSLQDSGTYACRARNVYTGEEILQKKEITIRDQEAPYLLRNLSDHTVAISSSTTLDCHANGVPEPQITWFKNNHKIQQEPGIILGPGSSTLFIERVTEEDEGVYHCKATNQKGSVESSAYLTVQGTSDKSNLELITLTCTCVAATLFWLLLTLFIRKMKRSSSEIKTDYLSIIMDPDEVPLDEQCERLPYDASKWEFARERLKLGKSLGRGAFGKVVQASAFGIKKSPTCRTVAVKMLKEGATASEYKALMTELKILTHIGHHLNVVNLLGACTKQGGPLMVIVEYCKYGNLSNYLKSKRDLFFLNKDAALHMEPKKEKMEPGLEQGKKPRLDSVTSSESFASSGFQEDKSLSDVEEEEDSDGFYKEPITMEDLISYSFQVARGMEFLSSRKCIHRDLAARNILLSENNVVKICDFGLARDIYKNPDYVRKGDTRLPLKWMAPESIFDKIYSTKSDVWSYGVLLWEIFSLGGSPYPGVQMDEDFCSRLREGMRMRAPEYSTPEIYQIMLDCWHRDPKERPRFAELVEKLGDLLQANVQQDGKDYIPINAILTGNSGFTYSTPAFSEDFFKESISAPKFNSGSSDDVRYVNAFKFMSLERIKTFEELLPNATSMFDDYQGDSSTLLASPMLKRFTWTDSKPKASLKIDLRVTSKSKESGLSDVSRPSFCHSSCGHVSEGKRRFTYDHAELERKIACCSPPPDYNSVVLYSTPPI
Chain of Proto-oncogene tyrosine-protein kinase receptor Ret (Homo sapiens), P07949 [V804L] (P07949 whole entry V804L): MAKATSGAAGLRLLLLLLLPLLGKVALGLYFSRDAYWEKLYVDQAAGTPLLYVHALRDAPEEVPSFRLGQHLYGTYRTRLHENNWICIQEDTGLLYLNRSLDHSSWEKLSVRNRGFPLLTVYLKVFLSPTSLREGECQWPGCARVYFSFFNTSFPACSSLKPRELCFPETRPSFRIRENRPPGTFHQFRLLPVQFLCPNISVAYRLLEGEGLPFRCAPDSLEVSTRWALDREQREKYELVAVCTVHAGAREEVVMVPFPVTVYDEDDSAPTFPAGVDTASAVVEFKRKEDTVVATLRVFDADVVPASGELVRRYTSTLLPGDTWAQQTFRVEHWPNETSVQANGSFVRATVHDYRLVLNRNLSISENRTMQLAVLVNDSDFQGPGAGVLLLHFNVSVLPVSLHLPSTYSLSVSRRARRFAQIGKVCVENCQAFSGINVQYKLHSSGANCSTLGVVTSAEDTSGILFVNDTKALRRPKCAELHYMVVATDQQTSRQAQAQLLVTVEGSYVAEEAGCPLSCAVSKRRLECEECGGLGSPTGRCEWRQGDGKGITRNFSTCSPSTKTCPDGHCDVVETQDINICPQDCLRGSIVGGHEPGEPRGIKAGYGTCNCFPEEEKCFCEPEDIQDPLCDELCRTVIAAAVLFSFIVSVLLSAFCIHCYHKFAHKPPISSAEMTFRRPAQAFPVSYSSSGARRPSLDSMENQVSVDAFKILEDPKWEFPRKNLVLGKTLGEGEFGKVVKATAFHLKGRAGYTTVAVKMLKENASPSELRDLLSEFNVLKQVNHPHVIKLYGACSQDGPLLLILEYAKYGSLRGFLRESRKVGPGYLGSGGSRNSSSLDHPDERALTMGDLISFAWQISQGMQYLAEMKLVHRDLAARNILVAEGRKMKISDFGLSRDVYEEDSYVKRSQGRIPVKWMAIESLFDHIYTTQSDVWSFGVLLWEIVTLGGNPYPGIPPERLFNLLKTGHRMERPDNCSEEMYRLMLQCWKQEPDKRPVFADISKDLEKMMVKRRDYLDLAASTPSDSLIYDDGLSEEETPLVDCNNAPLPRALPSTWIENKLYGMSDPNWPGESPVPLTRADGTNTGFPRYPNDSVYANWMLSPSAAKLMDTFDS

O=c1nc(-c2ccccn2)sc2ccccc12 [BTZO-1]
residual activity [1]: 100% | residual activity [2]: 100% | residual activity [3]: 83% | residual activity [4]: 82% | residual activity [5]: 100% | residual activity [6]: 85% | inhibition [7]: 9.69% | residual activity [8]: 76% | residual activity [9]: 99% | residual activity [10]: 100% | residual activity [11]: 87% | residual activity [12]: 96% | residual activity [13]: 100% | residual activity [14]: 93% | inhibition (Rattus norvegicus): 9.91% | residual activity [15]: 85% | residual activity [16]: 100% | residual activity [17]: 100% | inhibition [18]: 9.84% | residual activity [19]: 100% | residual activity [20]: 86% | residual activity [21]: 100% | residual activity [22]: 100% | residual activity [23]: 100% | residual activity [24]: 100% | residual activity [25]: 100% | residual activity [26]: 100% | residual activity [27]: 92% | residual activity [28]: 100% | residual activity [29]: 70% | residual activity [30]: 73% | residual activity [31]: 90% | residual activity [32]: 85% | residual activity [33]: 96% | residual activity [34]: 83% | residual activity [35]: 96% | residual activity [36]: 100% | residual activity [37]: 95% | residual activity [38]: 100% | residual activity [39]: 84% | residual activity [40]: 75% | residual activity [41]: 100% | inhibition [42]: 55.9% | residual activity [43]: 100%

O=C1NC(c2ccccn2)Sc2ccccc21 (stereo not drawn) [BTZO-4]
residual activity [1]: 100% | residual activity [2]: 82% | residual activity [3]: 83% | residual activity [4]: 100% | residual activity [5]: 100% | residual activity [6]: 86% | inhibition [7]: 24.7% | residual activity [8]: 76% | residual activity [9]: 89% | residual activity [10]: 92% | residual activity [11]: 87% | residual activity [12]: 90% | residual activity [13]: 80% | residual activity [14]: 97% | inhibition (Rattus norvegicus): 22.6% | residual activity [15]: 82% | residual activity [16]: 100% | residual activity [17]: 100% | inhibition [18]: -5.82% | residual activity [19]: 100% | residual activity [20]: 79% | residual activity [21]: 100% | residual activity [22]: 96% | residual activity [23]: 100% | residual activity [24]: 89% | residual activity [25]: 90% | residual activity [26]: 82% | residual activity [27]: 82% | residual activity [28]: 100% | residual activity [29]: 69% | residual activity [30]: 89% | residual activity [31]: 79% | residual activity [32]: 72% | residual activity [33]: 97% | residual activity [34]: 72% | residual activity [35]: 75% | residual activity [36]: 99% | residual activity [37]: 98% | residual activity [38]: 88% | residual activity [39]: 89% | residual activity [40]: 63% | residual activity [41]: 90% | inhibition [42]: 6.34% | residual activity [43]: 100%
